Assay results published in ChEMBL document CHEMBL6103672, “Discovery of HMPL-306 (Ranosidenib), a New Potent and Selective Dual Inhibitor of Mutant IDH1 and 2 in Clinical Development for Cancer Treatment” (ACS Med Chem Lett, 2025).

What was measured:
[1] = Volume of distribution at steady state in male ICR mouse at 2.5 mg/kg, iv measured after 8 hrs by LC/MS/MS analysis; assay type: ADME, organism-based; conditions: in vivo, read-out: Vdss
[2] = Apparent permeability across basolateral to apical side in human Caco-2 cells at 10 uM incubated for 1 hrs by LC-MS/MS analysis
[3] = Inhibition of IDH1 R132H mutant in human TF-1 cells incubated for 72 hrs by measuring 2-HG production by fluorescence based analysis; assay type: functional, cell-based; conditions: TF-1, 72 h
[4] = Apparent permeability across apical to basolateral side in human Caco-2 cells at 10 uM incubated for 1 hrs by LC-MS/MS analysis
[5] = target: Isocitrate dehydrogenase [NADP], mitochondrial (Homo sapiens, UniProt P48735, R140Q); experiment: Inhibition of IDH2 R140Q mutant (unknown origin) using alpha-ketoglutarate as substrate preincubated with compound for 16 hrs followed by substrate addition and measured after 1 hr in presence of NADPH by fluorescence based analysis
[6] = Inhibition of IDH1 R132C mutant in human HT-1080 cells incubated for 72 hrs by measuring 2-HG production by fluorescence based analysis; assay type: functional, cell-based; conditions: HT-1080, 72 h
[7] = target: T1, UGT1A1 (Homo sapiens, UniProt P22309); experiment: Inhibition of UGT1A1 (unknown origin) at 10 uM relative to control; assay type: ADME
T1 sequence (P22309 whole entry): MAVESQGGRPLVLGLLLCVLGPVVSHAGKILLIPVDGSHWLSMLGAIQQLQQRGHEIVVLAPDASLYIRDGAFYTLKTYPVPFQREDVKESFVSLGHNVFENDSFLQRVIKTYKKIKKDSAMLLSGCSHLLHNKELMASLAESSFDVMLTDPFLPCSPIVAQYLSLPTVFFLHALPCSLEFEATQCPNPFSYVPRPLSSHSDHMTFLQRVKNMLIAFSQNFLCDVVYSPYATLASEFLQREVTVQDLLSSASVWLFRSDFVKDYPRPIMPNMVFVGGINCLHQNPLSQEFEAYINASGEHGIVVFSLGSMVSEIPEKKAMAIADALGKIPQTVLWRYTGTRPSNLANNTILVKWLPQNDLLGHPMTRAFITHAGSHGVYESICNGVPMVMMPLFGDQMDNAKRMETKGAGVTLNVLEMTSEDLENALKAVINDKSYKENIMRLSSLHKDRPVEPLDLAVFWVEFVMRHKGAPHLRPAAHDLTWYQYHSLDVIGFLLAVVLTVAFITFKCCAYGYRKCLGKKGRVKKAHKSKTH

[8] = target: T2, Adenosine receptor A3 (Homo sapiens, UniProt P0DMS8); experiment: Inhibition of adenosine A3 receptor (unknown origin); assay type: toxicity
T2 sequence (P0DMS8 whole entry): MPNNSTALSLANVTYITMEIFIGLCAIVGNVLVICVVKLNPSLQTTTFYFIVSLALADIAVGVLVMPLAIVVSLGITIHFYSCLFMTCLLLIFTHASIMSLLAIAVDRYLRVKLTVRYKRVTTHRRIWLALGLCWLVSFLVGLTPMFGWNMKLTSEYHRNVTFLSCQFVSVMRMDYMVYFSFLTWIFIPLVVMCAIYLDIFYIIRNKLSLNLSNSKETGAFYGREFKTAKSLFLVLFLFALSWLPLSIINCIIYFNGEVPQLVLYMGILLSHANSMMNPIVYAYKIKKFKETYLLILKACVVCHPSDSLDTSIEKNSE

[9] = Half life in male Sprague-Dawley rat at 5 mg/kg, po measured after 24 hrs by LC/MS/MS analysis; assay type: ADME, organism-based; conditions: in vivo
[10] = Cmax in male ICR mouse at 10 mg/kg, po measured after 8 hrs by LC/MS/MS analysis; assay type: ADME, organism-based; conditions: in vivo
[11] = AUC(0 to infinity) in male ICR mouse at 2.5 mg/kg, iv measured after 8 hrs by LC/MS/MS analysis; assay type: ADME, organism-based; conditions: in vivo
[12] = Half life in male ICR mouse at 10 mg/kg, po measured after 8 hrs by LC/MS/MS analysis; assay type: ADME, organism-based; conditions: in vivo
[13] = Clearance in male Sprague-Dawley rat at 1 mg/kg, iv measured after 24 hrs by LC/MS/MS analysis; assay type: ADME, organism-based; conditions: in vivo
[14] = Inhibition of IDH1 R132H mutant in human U-87 MG cells incubated for 72 hrs by measuring 2-HG production by fluorescence based analysis; assay type: functional, cell-based, U-87MG ATCC; conditions: Homo sapiens, U-87 MG, 72 h
[15] = AUC(0 to t) in male ICR mouse at 2.5 mg/kg, iv measured after 24 hrs by LC/MS/MS analysis; assay type: ADME, organism-based; conditions: in vivo
[16] = In vivo inhibition of 2-HG in BALB/c nude mouse xenografted with human U-87 MG cells harboring IDH2 R140Q mutant at 25 mg/kg, po measured after 16 hrs post dose; assay type: functional
[17] = Inhibition of IDH2 R140Q mutant in human U-87 MG cells incubated for 72 hrs by measuring 2-HG production by fluorescence based analysis; assay type: functional, cell-based, U-87MG ATCC; conditions: Homo sapiens, U-87 MG, 72 h
[18] = In vivo inhibition of 2-HG in BALB/c nude mouse xenografted with human U-87 MG cells harboring IDH2 R140Q mutant at 25 mg/kg, po measured after 24 hrs post dose; assay type: functional; conditions: Mus musculus, BALB/c, U-87 MG
[19] = Half life in male ICR mouse at 2.5 mg/kg, iv measured after 8 hrs by LC/MS/MS analysis; assay type: ADME, organism-based; conditions: in vivo
[20] = target: Voltage-gated inwardly rectifying potassium channel KCNH2 (Homo sapiens, UniProt Q12809); experiment: Inhibition of hERG expressed in CHO cells by manual patch-clamp assay; assay type: toxicity, cell-based
[21] = In vivo inhibition of 2-HG in BALB/c nude mouse xenografted with human HT-1080 cells harboring IDH1 R132C mutant at 25 mg/kg, po measured after 16 to 40 hrs post dose; assay type: functional; conditions: time 16-40 hrs
[22] = Metabolic stability in male ICR mouse liver microsomes assessed as parent compound remaining at 1 uM measured after 30 mins in presence of NADPH by LC-MS analysis; assay type: ADME, Microsome; conditions: read-out: Stability
[23] = Volume of distribution at steady state in male Sprague-Dawley rat at 1 mg/kg, iv measured after 24 hrs by LC/MS/MS analysis; assay type: ADME, organism-based; conditions: in vivo, read-out: Vdss
[24] = Half life in male Sprague-Dawley rat at 1 mg/kg, iv measured after 24 hrs by LC/MS/MS analysis; assay type: ADME, organism-based; conditions: in vivo
[25] = Clearance in male ICR mouse at 2.5 mg/kg, iv measured after 8 hrs by LC/MS/MS analysis; assay type: ADME, organism-based; conditions: in vivo
[26] = Oral bioavailability in male ICR mouse at 10 mg/kg measured after 8 hrs by LC/MS/MS analysis; assay type: ADME, organism-based; conditions: in vivo
[27] = AUC(0 to infinity) in male ICR mouse at 10 mg/kg, po measured after 8 hrs by LC/MS/MS analysis; assay type: ADME, organism-based; conditions: in vivo
[28] = Ratio of drug concentration in brain to plasma of BALB/c nude mouse xenografted with human U-87 MG cells harboring IDH2 R140Q mutant at 50 mg/kg measured after 24 hrs by LC/MS/MS analysis; assay type: ADME, organism-based; conditions: read-out: BPR
[29] = Metabolic stability in male SD rat liver microsomes assessed as parent compound remaining at 1 uM measured after 30 mins in presence of NADPH by LC-MS analysis; assay type: ADME, Microsome; conditions: Sprague-Dawley, read-out: Stability

Sequence of Voltage-gated inwardly rectifying potassium channel KCNH2 (Q12809 whole entry): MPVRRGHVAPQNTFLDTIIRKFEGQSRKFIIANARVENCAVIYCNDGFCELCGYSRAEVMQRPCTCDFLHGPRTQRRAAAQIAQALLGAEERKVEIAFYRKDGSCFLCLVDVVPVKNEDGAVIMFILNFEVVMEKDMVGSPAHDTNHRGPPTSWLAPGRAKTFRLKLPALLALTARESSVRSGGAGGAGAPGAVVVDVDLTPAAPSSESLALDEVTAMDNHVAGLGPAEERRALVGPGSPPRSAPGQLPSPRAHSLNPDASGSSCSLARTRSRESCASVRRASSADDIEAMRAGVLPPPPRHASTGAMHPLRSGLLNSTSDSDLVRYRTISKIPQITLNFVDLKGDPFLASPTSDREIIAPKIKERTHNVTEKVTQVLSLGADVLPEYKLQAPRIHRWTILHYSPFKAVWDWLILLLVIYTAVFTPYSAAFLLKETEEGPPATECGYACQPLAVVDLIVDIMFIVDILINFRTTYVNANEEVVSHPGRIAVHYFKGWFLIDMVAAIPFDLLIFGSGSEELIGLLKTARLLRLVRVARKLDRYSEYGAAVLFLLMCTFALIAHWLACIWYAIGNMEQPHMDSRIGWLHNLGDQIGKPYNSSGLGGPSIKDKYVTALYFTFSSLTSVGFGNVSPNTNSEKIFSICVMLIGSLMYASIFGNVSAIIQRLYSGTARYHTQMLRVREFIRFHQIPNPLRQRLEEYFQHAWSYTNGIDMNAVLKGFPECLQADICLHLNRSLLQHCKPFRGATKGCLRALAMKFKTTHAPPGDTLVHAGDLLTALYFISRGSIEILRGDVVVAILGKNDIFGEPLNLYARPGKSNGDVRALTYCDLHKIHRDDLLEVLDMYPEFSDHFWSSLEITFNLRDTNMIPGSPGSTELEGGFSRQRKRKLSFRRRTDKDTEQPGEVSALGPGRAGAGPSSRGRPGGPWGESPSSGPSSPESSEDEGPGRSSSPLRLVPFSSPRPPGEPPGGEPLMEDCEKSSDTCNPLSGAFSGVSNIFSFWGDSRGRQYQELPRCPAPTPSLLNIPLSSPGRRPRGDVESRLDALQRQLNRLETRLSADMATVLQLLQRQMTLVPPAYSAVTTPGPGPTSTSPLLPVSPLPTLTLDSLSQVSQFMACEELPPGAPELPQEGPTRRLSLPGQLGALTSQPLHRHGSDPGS
Sequence of Isocitrate dehydrogenase [NADP], mitochondrial (P48735 40-452 R140Q limits assumed): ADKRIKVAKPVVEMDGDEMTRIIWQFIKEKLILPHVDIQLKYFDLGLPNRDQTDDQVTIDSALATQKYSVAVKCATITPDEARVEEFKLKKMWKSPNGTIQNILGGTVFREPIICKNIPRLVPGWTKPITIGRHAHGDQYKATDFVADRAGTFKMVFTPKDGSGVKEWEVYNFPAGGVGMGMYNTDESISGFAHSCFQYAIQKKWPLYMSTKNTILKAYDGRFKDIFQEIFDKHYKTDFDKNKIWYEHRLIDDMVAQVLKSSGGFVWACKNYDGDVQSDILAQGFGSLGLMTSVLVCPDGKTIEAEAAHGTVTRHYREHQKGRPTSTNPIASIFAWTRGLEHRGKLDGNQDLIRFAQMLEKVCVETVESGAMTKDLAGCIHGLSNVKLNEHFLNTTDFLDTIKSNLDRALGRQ

Question: With `C[C@@H](Nc1nc(N[C@H](C)C(F)(F)F)nc(C2=C(F)[C@H](O)C(F)(F)CC2)n1)C(F)(F)F` [RANOSIDENIB] as the compound, how does the Vd [1] read?
Answer: 2.57 L/kg

Question: And the Papp B→A at 1 h, 10 µM [2]?
Answer: 24 ×10⁻⁶ cm/s

Question: And the IC50 [3]?
Answer: 31 nM

Question: And the Papp A→B at 1 h, 10 µM [4]?
Answer: 53.3 ×10⁻⁶ cm/s

Question: What about the IC50 [5] of the same compound?
Answer: 28 nM

Question: And the IC50 [6]?
Answer: 26 nM

Question: What about the inhibition at 10 µM [7] of the same compound?
Answer: 46.7%

Question: What about the IC50 [8] of the same compound?
Answer: 8500 nM

Question: And the half-life [9]?
Answer: 50.4 h

Question: And the Cmax [10]?
Answer: 2050 ng/mL

Question: And the AUC(0-inf) [11]?
Answer: 12700 ng·h/mL

Question: And the half-life [12]?
Answer: 20.2 h

Question: What about the clearance [13] of the same compound?
Answer: 0.8 mL/min/kg

Question: What about the IC50 [14] of the same compound?
Answer: 50 nM

Question: And the AUC(0-t) at 24 h [15]?
Answer: 10400 ng·h/mL

Question: And the inhibition in vivo at 25 mg/kg [16]?
Answer: 96%

Question: And the IC50 [17]?
Answer: 31 nM

Question: What about the inhibition in vivo at 25 mg/kg [18] of the same compound?
Answer: 98%

Question: And the half-life [19]?
Answer: 10.6 h

Question: And the IC50 [20]?
Answer: > 30000 nM

Question: And the inhibition in vivo at 25 mg/kg [21]?
Answer: ≥ 90%

Question: What about the remaining at 0.5 h, 1 µM [22] of the same compound?
Answer: 98.4%

Question: What about the Vd [23] of the same compound?
Answer: 3.67 L/kg

Question: And the half-life [24]?
Answer: 49.9 h

Question: What about the clearance [25] of the same compound?
Answer: 3.3 mL/min/kg

Question: And the bioavailability [26]?
Answer: 84.2%

Question: And the AUC(0-inf) [27]?
Answer: 62000 ng·h/mL

Question: And the Kp at 24 h [28]?
Answer: 2.9

Question: What about the remaining at 0.5 h, 1 µM [29] of the same compound?
Answer: 99.5%
